# According to patent publication US20210017607A1, “Methods of Predicting Responsiveness to Cancer Therapies” (The University of Chicago, priority 2019, published 2021):
# System: Myc-CAP-PTEN-deficient cancer cells
# Test: Exosome dsDNA content by Nanodrop
# Type: cell-based, mouse
# Conditions: rucaparib 36 hours
# Protocol: FIGS. 40A and 40B. […] Isogenic PTEN-proficient and CRISPR-CAS9-mediated PTEN-knockout Myc-CAP cells were treated with rucaparib for 36 hours. Exosomes were collected by ultracentrifugation and used for quantification of particle number by Nanosight (40A) and dsDNA content by Nanodrop® (40B). n=2 experiments.
# FIGS. 41A and 41B. […] Exosomes were collected by ultracentrifugation and used for quantification of particle number by Nanosight (41A) and dsDNA content by Nanodrop® (41B). n=2 experiments.
# Microvesicle Isolation (MVs)/DNA extraction. Cells were treated for 36 hours with the indicated drugs, and supernatants were harvested and then centrifuged at 300×g for 5 minutes at 4° C. to pellet cells, This was followed by additional centrifugation steps at 2,000×g for 10 min at 4° C. to eliminate dead cell debris and at 10,000×g for 30 min in at 4° C. to remove larger vesicles. The supernatant was then collected and subjected to 100,000×g centrifugation in a Type 60 Ti rotor (38000 rpm) for 70 min at 4 ° C. […] The final EV pellet was collected in 1×PBS and used for quantification. […] Equal numbers of EVs were collected from each treatment group and DNA was extracted using Trizol® LS as per protocol (Thermo Fischer Scientific®) and then quantified using Nanodrop®.
smiles,measurement,setting,value
CNCc1ccc(-c2[nH]c3cc(F)cc4c3c2CCNC4=O)cc1 [rucaparib],exosomal dsDNA content relative to PTEN-proficient counterparts,CRISPR-CAS9 PTEN-knockout,significantly reduced dsDNA content
same,exosomal dsDNA content relative to PTEN-proficient counterparts,siRNA PTEN-knockdown,significantly reduced dsDNA content
